# Values of other authors, collected in PMC7855261 (Cell chemical biology, 2020).
# Tested on: r(CUG)12-MBNL1 complex
# Conditions: ref Parkesh et al., 2012; Rzuczek et al., 2015
structure (smiles),measurement,value
"Nc1ccc2nc(-c3ccc(-c4nc5ccc(N)cc5[nH]4)cc3)[nH]c2c1 [Compound 3, 2,2′-p-Phenylene-bis(5-aminobenzimidazole)]",Bind r(CUG)^exp and inhibit formation of the r(CUG)^exp-MBNL1 complex,inhibit formation of the r(CUG)^exp-MBNL1 complex
